According to publication PMC6264139, “Schiff Bases of Indoline-2,3-dione: Potential Novel Inhibitors of Mycobacterium Tuberculosis (Mtb) DNA Gyrase ^†” (Molecules, 2011):
Several values for one entry are separate records, joined by “and”; a condition that tells them apart may be missing. Equal entries are not always repeated.

What follows are compounds tested against Mtb DNA gyrase (Mycobacterium tuberculosis, UniProt P9WG45+P9WG47) (assay: Mtb DNA gyrase supercoiling inhibition assay). Conditions: Mtb wt gyrase IC50, supercoiling of relaxed pBR322 DNA, 60 minutes at 37 °C, inhibitor 1.56 to 200 µM.
Type: biochemical, Mycobacterium tuberculosis strain H37RV
Method: Two-fold increases in inhibitor concentrations ranging from 1.56 to 200 µM were added to pBR322 relaxed DNA in the presence of Mtb DNA gyrase enzyme. Control lanes are: Lane 1, DNA with no enzyme or inhibitor and Lane 2, DNA with enzyme but no inhibitor. IC50 values were calculated by measurement of fluorescence intensity after ethidium bromide staining of the supercoiling band at the bottom of the lanes. […] (b) IC50 curves of supercoiling (SC) fluorescence data. DNA fluorescence was quantitated with an Alpha Imager 2200 Analysis System (Cell Biosciences, Santa Clara, CA, USA) and IC50 values were determined by nonlinear regression analysis with Graphpad Prism software (Graphpad Software, Inc., San Diego, CA, USA). IDV = Integrated Density Value.
The isatin Schiff bases synthesized and characterized in this report were tested for their ability to inhibit supercoiling activity of DNA gyrase. DNA gyrase is the only enzyme known so far having the ability to introduce negative supercoils in DNA. In all the species of mycobacteria, including Mtb, DNA gyrase is the sole type II topoisomerase carrying out the reactions of both gyrase and topoisomerase IV. Since the DNA gyrase from Mtb and M. smegmatis are highly similar at a functional as well as a protein sequence level and antigenic properties, Mtb strain H37RV DNA gyrase has been used for carrying out the supercoiling assays.
Relaxed pBR322 DNA (0.1 µg) was incubated with 1 unit of Mtb DNA gyrase for 60 minutes at 37 °C in the following buffer: 2 mM ATP, 4 mM DTT, 25 mM KCl, 6 mM magnesium acetate, 50 µg/mL of molecular grade BSA, 0.1 mg/mL E. coli tRNA, 2mM spermidine, 100 mM potassium glutamate and 40 mM Tris-HCL pH 7.5 (20 µL). Reactions are stopped with 0.5% SDS, 6 mM EDTA, 5.35% glycerol, and 0.013% bromophenol blue (10 µL). Reactions are then loaded onto a 1% agarose/ TBE gel to separate supercoiled and relaxed DNA forms and run overnight at 22 volts. Bands are visualized by staining with 0.5 µg/mL EtBr in 1 × TBE for 40 minutes then washing with dH2O for 120 minutes. Quantification is done on the AlphaImager 2200 system. DNA gyrase subunits, GyrA and GyrB, were isolated from Mtb strain H37RV genomic DNA, expressed and purified in pET overexpression constructs in E coli. One unit of DNA supercoiling activity is defined as the amount that converts ~50% relaxed DNA, in the standard assay, to supercoiled DNA in 60 minutes at 37 °C.

Sequence of Mtb DNA gyrase (P9WG45 whole entry): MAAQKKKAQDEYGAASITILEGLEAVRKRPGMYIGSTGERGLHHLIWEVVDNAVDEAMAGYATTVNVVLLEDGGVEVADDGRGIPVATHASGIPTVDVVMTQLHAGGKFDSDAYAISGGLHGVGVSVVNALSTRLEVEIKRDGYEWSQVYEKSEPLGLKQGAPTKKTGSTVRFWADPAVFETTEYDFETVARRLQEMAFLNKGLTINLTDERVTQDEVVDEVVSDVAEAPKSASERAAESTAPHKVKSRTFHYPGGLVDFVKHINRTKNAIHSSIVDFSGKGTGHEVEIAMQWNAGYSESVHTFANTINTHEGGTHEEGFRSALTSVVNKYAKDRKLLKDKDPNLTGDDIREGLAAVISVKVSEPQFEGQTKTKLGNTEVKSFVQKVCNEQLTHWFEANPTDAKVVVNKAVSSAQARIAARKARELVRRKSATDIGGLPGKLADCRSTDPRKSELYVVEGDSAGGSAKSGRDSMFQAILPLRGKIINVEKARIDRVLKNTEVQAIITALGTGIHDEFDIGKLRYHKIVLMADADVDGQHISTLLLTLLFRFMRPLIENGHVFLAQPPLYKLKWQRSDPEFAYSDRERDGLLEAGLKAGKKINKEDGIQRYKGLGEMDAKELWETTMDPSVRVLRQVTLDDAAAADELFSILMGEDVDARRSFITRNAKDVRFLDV
Sequence of Mtb DNA gyrase (P9WG47 whole entry): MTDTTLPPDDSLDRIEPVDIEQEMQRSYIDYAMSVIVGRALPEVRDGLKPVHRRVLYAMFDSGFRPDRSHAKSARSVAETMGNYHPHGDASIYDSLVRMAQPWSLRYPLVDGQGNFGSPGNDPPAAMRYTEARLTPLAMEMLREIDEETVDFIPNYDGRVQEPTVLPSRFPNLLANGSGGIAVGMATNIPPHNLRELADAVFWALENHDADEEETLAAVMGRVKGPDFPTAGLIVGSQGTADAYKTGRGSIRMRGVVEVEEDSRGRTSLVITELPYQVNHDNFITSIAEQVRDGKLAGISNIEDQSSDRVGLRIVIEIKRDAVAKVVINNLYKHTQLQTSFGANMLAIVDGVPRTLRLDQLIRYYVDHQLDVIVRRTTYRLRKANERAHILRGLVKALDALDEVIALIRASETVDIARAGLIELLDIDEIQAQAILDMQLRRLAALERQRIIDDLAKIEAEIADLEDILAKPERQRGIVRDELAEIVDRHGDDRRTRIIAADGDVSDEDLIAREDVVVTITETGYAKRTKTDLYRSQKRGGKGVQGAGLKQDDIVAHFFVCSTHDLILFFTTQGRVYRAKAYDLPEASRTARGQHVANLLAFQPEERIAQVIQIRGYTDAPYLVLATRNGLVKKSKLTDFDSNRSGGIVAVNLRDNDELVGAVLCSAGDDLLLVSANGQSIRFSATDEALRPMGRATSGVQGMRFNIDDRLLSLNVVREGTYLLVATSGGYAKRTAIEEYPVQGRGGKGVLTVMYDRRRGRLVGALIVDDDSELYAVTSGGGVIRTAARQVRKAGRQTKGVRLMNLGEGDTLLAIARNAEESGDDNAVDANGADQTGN

SMILES | IC50
O=C1Nc2ccccc2/C1=N/NC(=O)c1ccncc1 [Compound 3, (Z)-N'-(2-Oxoindolin-3-ylidene)isonicotinohydrazide] | > 200 µM
O=C1Nc2ccc(Cl)cc2/C1=N/NC(=O)c1ccncc1 [Compound 4, (Z)-N'-(5-Chloro-2-oxoindolin-3-ylidene)isonicotinohydrazide] | > 200 µM
O=C1Nc2ccc(F)cc2/C1=N/NC(=O)c1ccncc1 [Compound 5, (Z)-N'-(5-Fluoro-2-oxoindolin-3-ylidene)isonicotinohydrazide] | > 200 µM
Cc1ccc2c(c1)/C(=N/NC(=O)c1ccncc1)C(=O)N2 [Compound 6, (Z)-N'-(5-Methyl-2-oxoindolin-3-ylidene)isonicotinohydrazide] | > 200 µM
O=C1Nc2ccc(OC(F)(F)F)cc2/C1=N/NC(=O)c1ccncc1 [Compound 7, (Z)-N'-(2-Oxo-5-(trifluoromethoxy)indolin-3-ylidene)isonicotinohydrazide] | > 200 µM
O=C1Nc2ccc([N+](=O)[O-])cc2/C1=N/NC(=O)c1ccncc1 [Compound 8, (Z)-N'-(5-Nitro-2-oxoindolin-3-ylidene)isonicotinohydrazide] | 157 µM
O=C(N/N=C1\C(=O)N(c2ccccc2)c2ccccc21)c1ccncc1 [Compound 9, (Z)-N'-(2-Oxo-1-phenylindolin-3-ylidene)isonicotinohydrazide] | > 200 µM
O=C(N/N=C1\C(=O)N(Cc2ccccc2)c2ccccc21)c1ccncc1 [Compound 10, (Z)-N'-(1-Benzyl-2-oxoindolin-3-ylidene)isonicotinohydrazide] | > 200 µM
O=C(N/N=C1\C(=O)N(Cc2ccccc2)c2ccc(Cl)cc21)c1ccncc1 [Compound 11, (Z)-N'-(1-Benzyl-5-chloro-2-oxoindolin-3-ylidene)isonicotinohydrazide] | > 200 µM
O=C(N/N=C1\C(=O)N(Cc2ccccc2)c2ccc(F)cc21)c1ccncc1 [Compound 12, (Z)-N'-(1-Benzyl-5-fluoro-2-oxoindolin-3-ylidene)isonicotinohydrazide] | > 200 µM
Cc1ccc2c(c1)/C(=N/NC(=O)c1ccncc1)C(=O)N2Cc1ccccc1 [Compound 13, (Z)-N'-(1-Benzyl-5-methyl-2-oxoindolin-3-ylidene)isonicotinohydrazide] | > 200 µM
O=C1Nc2ccccc2/C1=N/NC(=O)c1cccnc1 [Compound 14, (Z)-N'-(2-Oxoindolin-3-ylidene)nicotinohydrazide] | > 200 µM
O=C1Nc2ccc(F)cc2/C1=N/NC(=O)c1ccco1 [Compound 15, (Z)-N'-(5-Fluoro-2-oxoindolin-3-ylidene)furan-2-carbhydrazide] | > 200 µM
O=C1Nc2ccccc2/C1=N/NC(=O)c1ccc([N+](=O)[O-])o1 [Compound 16, (Z)-5-Nitro-N'-(2-Oxoindolin-3-ylidene)furan-2-carbohydrazide] | > 200 µM
O=C1Nc2ccc(Cl)cc2/C1=N/NC(=O)c1cc2ccccc2o1 [Compound 17, (Z)-N'-(5-Chloro-2-oxoindolin-3-ylidene)benzofuran-2-carbohydrazide] | > 200 µM and 294 µM
Cc1ccc2c(c1)/C(=N/NC(=O)c1cc3ccccc3o1)C(=O)N2 [Compound 18, (Z)-N'-(5-Methyl-2-oxoindolin-3-ylidene)benzofuran-2-carbohydrazide] | ~50 µM and 56.3 µM
O=C1Nc2ccc([N+](=O)[O-])cc2/C1=N/NC(=O)c1cc2ccccc2o1 [Compound 19, (Z)-N'-(5-Nitro-2-oxoindolin-3-ylidene)benzofuran-2-carbohydrazide] | 89.9 µM
O=C(N/N=C1\C(=O)N(c2ccccc2)c2ccccc21)c1cc2ccccc2o1 [Compound 20, (Z)-N'-(2-Oxo-1-phenylindolin-3-ylidene)benzofuran-2-carbohydrazide] | > 200 µM
O=C1Nc2ccc(F)cc2/C1=N/NC(=O)c1cc2cc([N+](=O)[O-])ccc2o1 [Compound 21, (Z)-N'-(5-Fluoro-2-oxoindolin-3-ylidene)-5-nitrobenzofuran-2-carbhydrazide] | > 200 µM
Cc1cccc(Nc2ccccc2C(=O)N/N=C2\C(=O)N(Cc3ccccc3)c3ccccc32)c1C [Compound 23, (Z)-N'-(1-Benzyl-2-oxoindolin-3-ylidene)-2-(2,3-dimethylphenylamino)benzohydrazide] | > 200 µM
Cc1ccc2c(c1)/C(=N/NC(=O)c1ccccc1Nc1c(Cl)ccc(C)c1Cl)C(=O)N2 [Compound 24, (Z)-2-(2,6-Dichloro-3-methylphenylamino)-N'-(5-methyl-2-oxoindolin-3-ylidene)-benzohydrazide] | > 200 µM
O=C1Nc2ccc(OC(F)(F)F)cc2/C1=N/NC(=O)c1ccccc1Nc1cccc(C(F)(F)F)c1 [Compound 25, (Z)-N'-(2-Oxo-5-(trifluoromethoxy)indolin-3-ylidene)-2-(3-(trifluoromethyl)phenylamino)-benzo-hydrazide] | > 200 µM
CCn1cc(C(=O)N/N=C2\C(=O)Nc3ccc(F)cc32)c(=O)c2ccc(C)nc21 [Compound 26, (Z)-1-Ethyl-N'-(5-fluoro-2-oxoindolin-3-ylidene)-7-methyl-4-oxo-1,4-dihydro-1,8-naphthyridine-3-carbohydrazide] | > 200 µM

Same assay, conditions: supercoiling of relaxed pBR322 DNA, 60 minutes at 37 °C, inhibitor 1.56 to 200 µM; read-out: Mtb wt gyrase IC50

SMILES | IC50
O=C1/C(=N\NC(=O)C23CC4CC(CC(C4)C2)C3)c2ccccc2N1c1ccccc1 [Compound 22, (Z)-N'-(2-oxo-1-phenylindolin-3-ylidene)adamantane-1-carbohydrazide] | > 200 µM
